Assay results taken from patent publication US8748398B2, “Stroke-targeting peptide and use thereof” (Kyungpook National University Industry-Academic Cooperation …, priority 2008, dated 2014).
Where no end group is shown, it is not given here.

Tests used:
[1] = test system: ipsilateral (ischemic) hemisphere of a brain; test: In vivo screening of phage-displayed CX7C peptide library, frequency of selected clones; details: 30 phage clones randomly selected in second and third rounds, rat with occluded MCA
[2] = test system: β-tubulin-positive neuron cell and GFAP-positive astrocyte in the ischemic brain tissue; test: Immunofluorescence staining for the type of cells bound to the peptide (anti-tubulin, anti-GFAP); type: in vivo, rat; details: 24 hours after ischemic injury
[3] = test system: ischemic stroke tissue; test: In vivo targeting of fluorescein-labeled peptide, fluorescence microscopy of frozen sections with TTC and TUNEL staining; design: species or system rat; details: for targeting to the contralateral tissue / targeting to the ipsilateral tissue: fluorescein peptide into left ventricle 24 hours after ischemic injury
[4] = test system: ischemic stroke tissue; test: Autoradiogram of absorption of 131I-labeled peptide in ischemic stroke tissue; type: in vivo, rat
[5] = tail vein 24 hours after ischemic injury, 1-hour circulation

Substance | Frequency (%) [1] | Frequency (clones with the sequence / clones sequenced) [1] | targeting to the contralateral tissue ([3]; 15-minute circulation) | targeting to the ipsilateral tissue ([3]; 15-minute circulation) | further results
CKRGGATAC (Stroke-targeting peptide 2) | (23%) | 7/30 | – | – | –
CLEVSRKNC (Stroke-targeting peptide 1) | (30%) | 9/30 | not targeted to the contralateral tissue | targeted to the ipsilateral tissue | co-localisation with GFAP-positive astrocyte in the ischemic brain tissue [2]: did not correspond; co-localisation with β-tubulin-positive neuron cell in the ischemic brain tissue [2]: corresponded to the position of β-tubulin-positive neuron cell; targeting in a neuron cell and an astrocyte in the contralateral brain tissue [2]: not observed; targeting to the ischemic hemisphere ([3]; 2-hour circulation (data not noted)): targeted to the ischemic hemisphere; targeting to control group organs (spleen, liver, lung) ([3]; 15-minute circulation): little; region of the stroke tissue where targeting was observed ([3]; 15-minute circulation, TTC staining): observed in a penumbra; binding to TUNEL-stained apoptotic cells in the penumbra ([3]; TUNEL staining of frozen sections): most of the apoptotic cells stained with TUNEL, except for some of them, were bound
CNSREVLKC [CNSREVLKC peptide, reference compound] | – | – | not observed | not observed | –
CRSAVAKNC (Stroke-targeting peptide 3) | (17%) | 5/30 | – | – | –
CTKRNAPDC (Stroke-targeting peptide 4) | (10%) | 3/30 | – | – | –
^131I-CLEVSRKNC peptide: CLEVSRKNC peptide (SEQ ID NO: 1) labeled with radioisotope 131I (cysteine pairing not given here; also: 131I radiolabel) | – | – | – | – | absorption in a general brain of a control group rat ([4]; 1-hour circulation): insufficient; absorption rate by optically stimulated luminescence ([4]; 4 coronal sections, third day vs first and seventh day, P<0.01): very high absorption rate on the third day; time course of absorption in ischemic tissue after ischemic injury ([4]; first, third and seventh day after ischemic injury): reached a peak on the third day; absorption in the contralateral region [4, 5]: insufficient; absorption in the ipsilateral hemisphere [4, 5]: observed in the ipsilateral hemisphere
